Results on 12 compounds are retold here after PMC7755424 (Journal of medicinal chemistry, 2020).

Usually solubility stands for how much of the substance goes into solution per volume. The low end stands for a poorly soluble substance, the high end for a readily soluble substance. The IC50 is the concentration that inhibits the measured activity by half.

Data set [1] is described as follows: Solubility by light scattering. In kind it is physicochemical. The settings on record: 1% DMSO:99% PBS buffer.
The next data set deals with T1, human sEH (Homo sapiens, UniProt P34913).
T1 sequence (P34913 1-555): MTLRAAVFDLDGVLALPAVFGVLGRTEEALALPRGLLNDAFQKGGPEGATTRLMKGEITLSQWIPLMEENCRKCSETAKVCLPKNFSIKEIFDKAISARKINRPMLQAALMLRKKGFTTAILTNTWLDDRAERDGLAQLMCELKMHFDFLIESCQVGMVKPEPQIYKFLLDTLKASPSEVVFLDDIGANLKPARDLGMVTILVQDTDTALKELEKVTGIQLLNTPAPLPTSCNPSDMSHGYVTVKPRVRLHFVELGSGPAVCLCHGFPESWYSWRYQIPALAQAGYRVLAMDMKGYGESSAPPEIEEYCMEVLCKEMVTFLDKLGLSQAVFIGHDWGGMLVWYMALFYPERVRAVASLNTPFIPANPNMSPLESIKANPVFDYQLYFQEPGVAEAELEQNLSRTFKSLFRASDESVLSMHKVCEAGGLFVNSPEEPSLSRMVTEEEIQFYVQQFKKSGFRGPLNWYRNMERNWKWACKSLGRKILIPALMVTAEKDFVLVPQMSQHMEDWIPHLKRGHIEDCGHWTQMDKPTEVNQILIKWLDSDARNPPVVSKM
The data set is described as follows: sEH inhibition, fluorescent-based assay. The settings on record: for reduction of the potency (hsEH) relative to 12: compared with 12. The format is biochemical.

For data set [2], the system named is human recombinant cytochrome P450 enzymes, mainly CYP1A2, CYP2C9, CYP2C19, CYP2D6 and CYP3AE. In words: Cytochrome P450 inhibition assay. The format is in vitro ADME.
For a further data set, the target named is hERG channel (Homo sapiens, UniProt Q12809). The data set is described as follows: hERG inhibition. Conditions: at 10 μM. Background: The hERG channel carries a current that helps repolarise heart muscle cells.
hERG channel, sequence (Q12809 whole entry): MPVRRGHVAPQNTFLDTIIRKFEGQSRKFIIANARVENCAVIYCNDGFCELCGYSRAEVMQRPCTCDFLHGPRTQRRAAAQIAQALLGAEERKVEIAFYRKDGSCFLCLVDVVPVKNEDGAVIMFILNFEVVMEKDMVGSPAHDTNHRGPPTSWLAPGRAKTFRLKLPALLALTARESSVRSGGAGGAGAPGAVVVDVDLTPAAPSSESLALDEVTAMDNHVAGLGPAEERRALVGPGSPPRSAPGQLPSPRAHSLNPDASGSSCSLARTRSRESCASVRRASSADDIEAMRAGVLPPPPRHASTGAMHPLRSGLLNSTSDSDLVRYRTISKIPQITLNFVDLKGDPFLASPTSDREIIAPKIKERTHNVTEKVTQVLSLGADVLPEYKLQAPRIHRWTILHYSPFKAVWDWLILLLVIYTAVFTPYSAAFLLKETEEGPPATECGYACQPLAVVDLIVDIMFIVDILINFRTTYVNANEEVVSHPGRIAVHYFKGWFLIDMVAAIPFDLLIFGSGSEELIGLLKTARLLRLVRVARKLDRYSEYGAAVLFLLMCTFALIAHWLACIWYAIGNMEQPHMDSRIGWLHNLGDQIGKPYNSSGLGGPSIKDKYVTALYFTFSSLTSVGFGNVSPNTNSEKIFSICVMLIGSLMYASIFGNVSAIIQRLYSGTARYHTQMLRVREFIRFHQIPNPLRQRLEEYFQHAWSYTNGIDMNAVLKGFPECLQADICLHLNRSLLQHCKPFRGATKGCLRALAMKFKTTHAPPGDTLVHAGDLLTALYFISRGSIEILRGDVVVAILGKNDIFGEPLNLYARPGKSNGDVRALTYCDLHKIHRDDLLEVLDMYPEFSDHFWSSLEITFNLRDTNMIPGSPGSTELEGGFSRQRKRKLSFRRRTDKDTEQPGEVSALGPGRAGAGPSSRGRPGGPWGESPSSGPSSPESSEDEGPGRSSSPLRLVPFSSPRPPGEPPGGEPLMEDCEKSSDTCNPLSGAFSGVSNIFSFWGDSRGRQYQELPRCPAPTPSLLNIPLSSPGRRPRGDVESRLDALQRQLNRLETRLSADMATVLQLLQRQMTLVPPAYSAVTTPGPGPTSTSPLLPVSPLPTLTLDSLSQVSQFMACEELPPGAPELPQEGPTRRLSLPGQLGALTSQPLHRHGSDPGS
Data set [3] has as its system Peripheral Blood Mononuclear Cells (PBMC). In words: Cytotoxicity in PBMCs cells + 1.5% PHA. In kind it is cell-based. Conditions: highest concentration tested (20 μM).
Another data set addresses T2, hLOX-5 (Homo sapiens, UniProt P09917).
T2 sequence (P09917 1-674): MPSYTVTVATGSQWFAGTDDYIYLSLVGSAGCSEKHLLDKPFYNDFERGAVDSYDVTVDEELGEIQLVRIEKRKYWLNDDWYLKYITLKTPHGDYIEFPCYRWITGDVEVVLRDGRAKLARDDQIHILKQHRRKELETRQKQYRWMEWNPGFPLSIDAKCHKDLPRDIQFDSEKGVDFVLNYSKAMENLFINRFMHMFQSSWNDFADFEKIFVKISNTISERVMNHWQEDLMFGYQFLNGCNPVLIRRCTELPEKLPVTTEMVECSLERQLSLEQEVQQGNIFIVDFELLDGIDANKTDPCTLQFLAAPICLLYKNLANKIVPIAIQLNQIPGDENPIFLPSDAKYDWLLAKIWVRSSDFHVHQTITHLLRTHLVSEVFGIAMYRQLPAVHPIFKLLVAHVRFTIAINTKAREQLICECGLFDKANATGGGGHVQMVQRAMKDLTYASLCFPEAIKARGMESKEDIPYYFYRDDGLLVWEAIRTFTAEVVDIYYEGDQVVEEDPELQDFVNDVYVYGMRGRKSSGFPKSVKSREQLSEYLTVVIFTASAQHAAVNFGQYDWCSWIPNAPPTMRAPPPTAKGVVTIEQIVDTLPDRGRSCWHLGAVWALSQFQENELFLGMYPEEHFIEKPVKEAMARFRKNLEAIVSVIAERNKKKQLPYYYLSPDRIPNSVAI
In words: Inhibition of human lipoxygenase-5. The settings on record: selectivity. In kind it is biochemical.

The nature of data set [4]: Maximum tolerated dose study. The settings on record: mice, ip daily, 5, 10, 20 and 80 mg/kg, five consecutive days. The format is in vivo.
Data set [5] has as its system cerulein-induced AP. In words: In vivo efficacy, cerulein-induced AP, post-induction. Also on record: species or system C57BL/6J mice. The settings on record: for inflammatory (TNF-α, IL-1β and MCP-1) and ER stress (ATF3) markers mRNA: post-induction, vs cerulein only.
The test system of data set [6] is AR42J pancreatic acinar rat cell line. The data set is described as follows: In vitro proof of concept: cerulein-induced AP in AR42J cells. In kind it is cell-based. The settings on record: 60 μM, cerulein 10 nM.
The test system of data set [7] is cerulein-induced AP. The data set is described as follows: In vivo efficacy, cerulein-induced AP, pre-induction. Also on record: species or system C57BL/6J mice.
Data set [8] can be described thus: Pharmacokinetic study in mouse. The settings on record: IP, 1 mg/kg.

Values after ≈ are worked out from the molar mass of the structure shown.

In data set [1], `CC(=O)N1CCC(NC(=O)NC23CC4CC(CC(C4)C2)C3)CC1` [Compound 1, 1-(1-Acetyl-piperidin-4-yl)-3-adamantan-1-yl-urea] came in with a solubility at 2 h of 24 µM (≈ 7.67 µg/mL).
As to `O=C(Nc1ccc(F)c(F)c1F)NC12CC3CC(C1)OC(C3)C2` [Compound 4, 1-(2-oxaadamant-5-yl)-3-(2,3,4-trifluorophenyl)urea], the midpoint of inhibition against human sEH, the IC50, lay at 47.4 nM.
The same measure, in the same setting: the figure for `O=C(Nc1ccc(F)c(F)c1F)NC12OC3C4C5CC(C6C5C3C61)C42` (stereo not shown) [Compound 9, 1-(4-oxahexacyclo[5.4.1.0^2,6.0^3,10.0^5,9.0^8,11]dodecan-3-yl)-3-(2,3,4-trifluorophenyl)urea] is 31.3 nM.
In the case of `CC(=O)N1CCC(NC(=O)NC23CC4CC(CC(C4)O2)C3)CC1` [Compound 12, 1-(1-acetylpiperidin-4-yl)-3-(oxaadamant-1-yl)urea], the “potency inhibiting the different cytochromes tested” value in data set [2] is “higher than 10 μM”. For the same compound, the “inhibition on hERG” value on hERG channel is reported as “minimal inhibition”. For the same compound, the “cytotoxicity in the PBMC” value in data set [3] is listed as “not cytotoxic”.
Consider `O=C(NC1CCN(Cc2ccccc2)CC1)NC12CC3CC(CC(C3)O1)C2` [Compound 15, 1-(2-Oxaadamant-1-yl)-3-(1-benzylpiperidin-4-yl)urea], for which the “reduction of the potency (hsEH) relative to 12” value on human sEH is approximately 40 fold.
Same read-out and setting: the figure for `O=C(NC1CCN(C(=O)C2CCOCC2)CC1)NC12CC3CC(CC(C3)O1)C2` [Compound 19, 1-(2-Oxaadamant-1-yl)-3-(1-(tetrahydro-2H-pyran-4-carbonyl)piperidin-4-yl)urea] is 10–15 fold.
Consider `O=C(NC1CCN(C(=O)c2cccnc2)CC1)NC12CC3CC(CC(C3)O1)C2` [Compound 20, 1-(2-Oxaadamant-1-yl)-3-(1-nicotinoylpiperidin-4-yl)urea], for which the “drop in inhibitory activity (hsEH) relative to 21” value at human sEH (3-pyridyl vs 2-fluorophenyl (21)) is 3 folds.
Consider `O=C(NC1CCN(C(=O)c2ccccc2F)CC1)NC12CC3CC(CC(C3)O1)C2` [Compound 21, 1-(2-Oxaadamant-1-yl)-3-(1-(2-fluorobenzoyl)piperidin-4-yl)urea], for which the “inhibition of hLOX-5” value on hLOX-5 is reported as “displayed significant inhibition”. The “cytotoxicity in the PBMC” value in data set [3] is “not cytotoxic”.
Turning to `CC(C)S(=O)(=O)N1CCC(NC(=O)NC23CC4CC(CC(C4)O2)C3)CC1` [Compound 22, 1-(2-Oxaadamant-1-yl)-3-(1-(isopropylsulfonyl)piperidin-4-yl)urea], the “potency inhibiting the different cytochromes tested” value in data set [2] is on record as “higher than 10 μM”. In addition, the “toxic effects (body weight, behavior problems, petechiae)” value in [4] is recorded as “No toxic effects were observed”. In addition, the “inflammatory (TNF-α, IL-1β and MCP-1) and ER stress (ATF3) markers mRNA” value is reported as “did not cause a significant reduction” with cerulein-induced AP [5] (3 mg/kg) and “significant reduction” in the data set with cerulein-induced AP [5] (30 mg/kg). Also, the “cerulein-induced edema and inflammation (H&E histology)” value in the data set with cerulein-induced AP [5] (treated after the induction of AP) and in the data set with cerulein-induced AP [7] (treated before the induction of AP) was “significant decrease” throughout. Also, at hLOX-5, the “inhibition of hLOX-5” value is on record as “displayed significant inhibition”. Moreover, the “increase in the expression of IL-6, CHOP and TRB3 caused by cerulein” value in [6] was “completely abolished”. In addition, in data set [6], the “increment in TNF-α caused by cerulein exposure” value was “strongly attenuated”. Moreover, the “inhibition on hERG” value at hERG channel is “minimal inhibition”. Moreover, the “increase of inflammatory (TNF-α, IL1-β and MCP-1) and ER stress (ATF3) markers produced by cerulein” value in the data set with cerulein-induced AP [7] (pre-induction, 30 mg/kg) was “significantly reduced”. Besides, the Cl in [8] stood at 473.5 mL/min/kg. Also, the “cytotoxicity in the PBMC” value in [3] is “not cytotoxic”.
Regarding `O=C(NC1CCN(C(=O)C2CC2)CC1)NC12CC3CC(CC(C3)O1)C2` [Compound 23, 1-(2-Oxaadamant-1-yl)-3-(1-(cyclopropanecarbonyl)-piperidin-4-yl)urea], the “reduction of the potency (hsEH) relative to 12” value on human sEH is recorded as 10–15 fold.
For `CCC(=O)N1CCC(NC(=O)NC23CC4CC(CC(C4)O2)C3)CC1` [Compound 24, 1-(2-Oxaadamantan-1-yl)-3-(1-propionylpiperidin-4-yl)urea], the “inhibition of hLOX-5” value at hLOX-5 is listed as “displayed significant inhibition”. In addition, the “reduction of the potency (hsEH) relative to 12” value at human sEH is 10–15 fold.
As for `CS(=O)(=O)N1CCC(NC(=O)NC23CC4CC(CC(C4)O2)C3)CC1` [Compound 26, 1-(2-Oxaadamantan-1-yl)-3-(1-(methylsulfonyl)piperidin-4-yl)urea], the “reduction of the potency (hsEH) relative to 12” value at human sEH is “eight”.
